{"source": "ChEMBL document CHEMBL5233233", "about": "“Histone deacetylase 3 (HDAC3) inhibitors as anticancer agents: A review” (Eur J Med Chem, 2020)", "key": {"Histone deacetylase 1 [1]": {"biological_target": "T1, Histone deacetylase 1 (Homo sapiens, UniProt Q13547)", "T1 sequence (Q13547 whole entry)": "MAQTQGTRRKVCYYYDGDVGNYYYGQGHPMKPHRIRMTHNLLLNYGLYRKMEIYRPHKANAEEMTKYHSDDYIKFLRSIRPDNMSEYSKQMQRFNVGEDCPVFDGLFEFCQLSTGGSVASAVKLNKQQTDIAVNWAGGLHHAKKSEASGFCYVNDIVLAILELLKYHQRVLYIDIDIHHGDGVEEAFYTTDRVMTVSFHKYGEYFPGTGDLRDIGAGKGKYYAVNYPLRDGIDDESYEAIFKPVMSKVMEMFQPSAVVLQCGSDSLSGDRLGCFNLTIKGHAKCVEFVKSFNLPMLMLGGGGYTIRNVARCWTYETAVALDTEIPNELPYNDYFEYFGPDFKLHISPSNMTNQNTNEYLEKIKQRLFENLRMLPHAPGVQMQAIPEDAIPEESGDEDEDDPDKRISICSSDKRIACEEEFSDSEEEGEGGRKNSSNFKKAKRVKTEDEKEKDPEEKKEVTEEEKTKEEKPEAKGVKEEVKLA", "assay": "Inhibition of human recombinant HDAC1 using Fluor-de-Lys as substrate at 50 uM for 30 mins by fluorescence based assay"}, "Histone deacetylase 2 [2]": {"biological_target": "T2, Histone deacetylase 2 (Homo sapiens, UniProt Q92769)", "T2 sequence (Q92769 whole entry)": "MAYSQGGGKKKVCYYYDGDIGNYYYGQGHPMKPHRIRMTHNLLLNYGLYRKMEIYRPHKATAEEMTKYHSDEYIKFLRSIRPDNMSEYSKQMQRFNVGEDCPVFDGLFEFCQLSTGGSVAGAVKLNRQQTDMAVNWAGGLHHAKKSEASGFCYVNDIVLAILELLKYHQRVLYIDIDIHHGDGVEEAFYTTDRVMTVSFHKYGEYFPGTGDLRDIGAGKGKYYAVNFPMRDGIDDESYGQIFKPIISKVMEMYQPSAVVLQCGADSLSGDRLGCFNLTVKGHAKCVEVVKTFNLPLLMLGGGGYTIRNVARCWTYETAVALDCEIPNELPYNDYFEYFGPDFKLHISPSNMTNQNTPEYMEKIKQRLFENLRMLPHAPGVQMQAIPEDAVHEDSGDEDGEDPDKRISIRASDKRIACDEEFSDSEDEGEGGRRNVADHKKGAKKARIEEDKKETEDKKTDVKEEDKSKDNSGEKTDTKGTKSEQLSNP", "assay": "Inhibition of human recombinant HDAC2 using Fluor-de-Lys as substrate at 50 uM for 30 mins by fluorescence based assay"}, "[3]": {"biological_target": "T3, Protein deacetylase HDAC6 (Homo sapiens, UniProt Q9UBN7)", "T3 sequence (Q9UBN7 whole entry)": "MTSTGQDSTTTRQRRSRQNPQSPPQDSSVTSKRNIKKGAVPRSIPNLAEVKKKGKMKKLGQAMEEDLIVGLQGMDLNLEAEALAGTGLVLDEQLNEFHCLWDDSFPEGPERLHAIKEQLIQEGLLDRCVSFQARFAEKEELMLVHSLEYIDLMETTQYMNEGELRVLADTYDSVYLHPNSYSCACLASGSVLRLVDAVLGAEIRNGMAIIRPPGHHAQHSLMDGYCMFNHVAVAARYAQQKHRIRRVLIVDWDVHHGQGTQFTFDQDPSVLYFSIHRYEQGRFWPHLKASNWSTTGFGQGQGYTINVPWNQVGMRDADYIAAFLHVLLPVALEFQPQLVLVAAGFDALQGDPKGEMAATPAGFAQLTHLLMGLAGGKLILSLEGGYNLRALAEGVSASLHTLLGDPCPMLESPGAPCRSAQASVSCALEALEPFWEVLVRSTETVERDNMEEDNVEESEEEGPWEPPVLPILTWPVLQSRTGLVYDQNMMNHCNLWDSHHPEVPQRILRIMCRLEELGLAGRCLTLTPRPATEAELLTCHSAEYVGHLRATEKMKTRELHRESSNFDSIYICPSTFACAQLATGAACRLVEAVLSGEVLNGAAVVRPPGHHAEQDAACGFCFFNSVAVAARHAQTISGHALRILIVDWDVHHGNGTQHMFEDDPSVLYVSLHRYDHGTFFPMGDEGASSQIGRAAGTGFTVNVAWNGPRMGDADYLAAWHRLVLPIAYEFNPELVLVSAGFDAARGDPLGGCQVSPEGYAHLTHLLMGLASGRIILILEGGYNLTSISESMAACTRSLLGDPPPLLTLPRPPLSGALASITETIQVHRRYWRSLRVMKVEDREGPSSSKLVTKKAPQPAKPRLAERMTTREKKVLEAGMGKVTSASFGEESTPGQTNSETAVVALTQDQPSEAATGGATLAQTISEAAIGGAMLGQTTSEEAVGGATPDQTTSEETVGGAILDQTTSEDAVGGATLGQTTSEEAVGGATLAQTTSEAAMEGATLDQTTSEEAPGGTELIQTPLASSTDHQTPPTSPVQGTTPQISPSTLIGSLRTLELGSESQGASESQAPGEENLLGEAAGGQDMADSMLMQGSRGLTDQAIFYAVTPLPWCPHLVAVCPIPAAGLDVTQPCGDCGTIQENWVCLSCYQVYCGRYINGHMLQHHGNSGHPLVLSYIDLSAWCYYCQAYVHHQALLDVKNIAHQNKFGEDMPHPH", "assay": "Inhibition of human recombinant HDAC6 using Fluor-de-Lys as substrate at 50 uM for 30 mins by fluorescence based assay"}, "[4]": {"biological_target": "T4, Polyamine deacetylase HDAC10 (Homo sapiens, UniProt Q969S8)", "T4 sequence (Q969S8 whole entry)": "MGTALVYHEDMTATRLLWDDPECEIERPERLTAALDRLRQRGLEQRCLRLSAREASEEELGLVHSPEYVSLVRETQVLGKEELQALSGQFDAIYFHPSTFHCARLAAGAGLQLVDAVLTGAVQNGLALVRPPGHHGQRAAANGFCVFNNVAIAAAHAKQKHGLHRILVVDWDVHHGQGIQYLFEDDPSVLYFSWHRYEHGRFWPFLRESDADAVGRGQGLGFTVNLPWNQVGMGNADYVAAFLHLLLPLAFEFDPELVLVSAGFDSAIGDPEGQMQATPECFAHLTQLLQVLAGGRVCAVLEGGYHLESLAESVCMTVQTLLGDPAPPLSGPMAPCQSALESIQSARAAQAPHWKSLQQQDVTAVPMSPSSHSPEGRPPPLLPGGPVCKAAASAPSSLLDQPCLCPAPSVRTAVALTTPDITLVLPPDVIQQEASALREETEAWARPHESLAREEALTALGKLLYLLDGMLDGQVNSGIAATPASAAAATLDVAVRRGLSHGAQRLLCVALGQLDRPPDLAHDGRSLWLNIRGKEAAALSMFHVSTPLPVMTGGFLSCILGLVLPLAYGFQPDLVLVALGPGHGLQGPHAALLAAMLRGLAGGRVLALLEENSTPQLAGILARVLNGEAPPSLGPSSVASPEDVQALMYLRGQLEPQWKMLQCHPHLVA", "assay": "Inhibition of human recombinant HDAC10 using Fluor-de-Lys as substrate at 50 uM for 30 mins by fluorescence based assay"}, "Histone deacetylase 1 [5]": {"biological_target": "T1, Histone deacetylase 1", "assay": "Inhibition of human recombinant HDAC1 at 50 uM measured after 24 hrs by fluorometric analysis"}, "Histone deacetylase 2 [6]": {"biological_target": "T2, Histone deacetylase 2", "assay": "Inhibition of recombinant HDAC2 (unknown origin) at 50 uM measured after 24 hrs by fluorometric based analysis"}, "Histone deacetylase 3 [7]": {"biological_target": "T5, Histone deacetylase 3 (Homo sapiens, UniProt O15379)", "T5 sequence (O15379 whole entry)": "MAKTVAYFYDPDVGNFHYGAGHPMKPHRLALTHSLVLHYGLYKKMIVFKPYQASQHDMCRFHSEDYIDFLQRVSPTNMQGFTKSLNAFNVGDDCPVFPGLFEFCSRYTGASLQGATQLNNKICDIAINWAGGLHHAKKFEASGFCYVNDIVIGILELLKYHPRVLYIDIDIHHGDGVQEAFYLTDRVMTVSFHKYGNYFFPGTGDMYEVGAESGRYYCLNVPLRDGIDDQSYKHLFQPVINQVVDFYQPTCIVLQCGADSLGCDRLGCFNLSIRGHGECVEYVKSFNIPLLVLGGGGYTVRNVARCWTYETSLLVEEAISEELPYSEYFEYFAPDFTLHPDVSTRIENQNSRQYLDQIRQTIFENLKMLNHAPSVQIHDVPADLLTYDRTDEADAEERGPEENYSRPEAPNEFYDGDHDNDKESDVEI", "assay": "Inhibition of recombinant HDAC3 (unknown origin) measured after 24 hrs by fluorometric analysis"}, "PC-3": {"test_system": "PC-3", "assay": "Anticancer activity against human PC-3 cells assessed as reduction in cell viability", "format": "functional, cell-based"}, "Histone deacetylase 1 [8]": {"biological_target": "T1, Histone deacetylase 1", "assay": "Inhibition of human recombinant HDAC1 using fluorogenic HDAC substrate measured after 20 mins by fluorescence assay"}, "Histone deacetylase 2 [9]": {"biological_target": "T2, Histone deacetylase 2", "assay": "Inhibition of human recombinant HDAC2 using fluorogenic HDAC substrate measured after 20 mins by fluorescence assay"}, "Histone deacetylase 3 [10]": {"biological_target": "T5, Histone deacetylase 3", "assay": "Inhibition of human HDAC3 using fluorogenic as substrate measured after 30 mins by fluorescence based analysis"}, "Histone deacetylase 3 [11]": {"biological_target": "T5, Histone deacetylase 3", "assay": "Inhibition of HDAC3 (unknown origin) at 10 uM"}, "Histone deacetylase 1 [12]": {"biological_target": "T1, Histone deacetylase 1", "assay": "Inhibition of human HDAC1 by fluorescence based assay method"}, "Histone deacetylase 3 [13]": {"biological_target": "T5, Histone deacetylase 3", "assay": "Inhibition of HDAC3 (unknown origin) at 5uM"}}}
{"smiles": "Nc1ccccc1NC(=O)CCCCCCC(=O)NO", "values": [{"measurement": "IC50", "setting": "Histone deacetylase 1 [1]", "value": 67.2, "unit": "nM"}, {"measurement": "IC50", "setting": "Histone deacetylase 2 [2]", "value": 101, "unit": "nM"}, {"measurement": "IC50", "setting": "[3]", "value": 9.93, "unit": "nM"}, {"measurement": "IC50", "setting": "[4]", "value": 49.3, "unit": "nM"}]}
{"smiles": "Nc1ccc(F)cc1NC(=O)c1cc2ccccc2o1", "values": [{"measurement": "IC50", "setting": "Histone deacetylase 1 [5]", "value": 1200, "unit": "nM"}, {"measurement": "IC50", "setting": "Histone deacetylase 2 [6]", "value": 1500, "unit": "nM"}, {"measurement": "IC50", "setting": "Histone deacetylase 3 [7]", "value": 80, "unit": "nM"}]}
{"smiles": "COc1ccccc1NC(=O)N[C@H](C(=O)Nc1ccc(C(=O)NO)cc1)c1ccccc1", "values": [{"measurement": "IC50", "setting": "PC-3", "value": 1510, "unit": "nM"}, {"measurement": "IC50", "setting": "Histone deacetylase 1 [8]", "value": 4.8, "unit": "nM"}, {"measurement": "IC50", "setting": "Histone deacetylase 2 [9]", "value": 19.5, "unit": "nM"}, {"measurement": "IC50", "setting": "Histone deacetylase 3 [10]", "value": 5.9, "unit": "nM"}]}
{"smiles": "COc1ccc(C(=O)N[C@@H](Cc2c[nH]c3ccccc23)C(=O)Nc2ccc(C(=O)Nc3ccc(-c4cccs4)cc3N)cc2)cc1", "values": [{"measurement": "IC50", "setting": "Histone deacetylase 3 [11]", "value": 62500, "unit": "nM"}]}
{"smiles": "Nc1ccccc1NC(=O)c1ccc(CNc2nc(-c3ccccc3)c(-c3ccccc3)o2)cc1", "values": [{"measurement": "IC50", "setting": "Histone deacetylase 1 [12]", "value": 6, "unit": "nM"}]}
{"smiles": "O=C(CCCCCCN1C=Cc2ccccc2C1)NO", "values": [{"measurement": "IC50", "setting": "Histone deacetylase 3 [13]", "value": 97, "unit": "nM"}]}
